Source: patent publication US9650400B2, “Voriconazole sodium phosphate hydrates and polymorphs thereof” (SHAANXI SYNTHETIC PHARMACEUTICAL CO., LTD., priority 2013, dated 2017)
Where two headings read alike, the source gives them in different places.

Experiments:
[1] = Pharmacokinetic experiments in rabbits (intravenous, equimolar); type: in vivo; details: rabbit
Procedure: Two rabbits of same body weight were intravenously administered equimolar voriconazole sodium phosphate and voriconazole, respectively, and an equal volume of blood was drawn from the rabbits at different time intervals, and a metabolism status in body was determined.

Aspergillus fumigatus = test: Diffused aspergillosis in guinea pigs; type: in vivo
Procedure: (§1) In all experiments, particular pathogen-free guinea pigs (body weight of 400-500 g) were used. A conduit was placed in the left jugular vein of the […] infected with Aspergillus fumigatus (4,000 CFU/g body weight) or Candida albicans (4,000 CFU/g body weight) via the lateral veins of penis of the animal or via the implanted conduit. One hour after infection, the animals were subject to an intravenous therapy (5 mg/kg/day). The mean survival time (MST) and the percent survival (% sur) were recorded for each group experimental animals (the number of each group of experimental animals is listed in column “N”) within respective number of days. The amounts of […] in deep tissues (such as liver, spleen, kidney, lung, or brain) were investigated in animals which died during the experiment and in animals which survived the experiment but were later sacrificed in respective groups. “% neg” in Table 1 represents the percent of deep tissues that were culture-negative after treatment.

[2] = Hydroscopicity comparison (moisture absorption, 25° C. and 80% humidity, 24 hours); type: physicochemical
[3] = type: physicochemical
Procedure: Sample injection was carried out by using a sample prepared by allowing the sample in Example 17 to absorb moisture, and the results are shown in Table 5.

Candida albicans = test: Diffused candidiasis in guinea pigs; type: in vivo; details: intravenous 5 mg/kg/day
Procedure: as §1

[4] = Aspergillus fumigatus, intravenous 5 mg/kg/day

With voriconazole sodium phosphate the “metabolism in body (in words)” value ([1]; intravenous) was “can be metabolized into voriconazole in body”, the “Prodrug in blood, peak area” value ([1]; intravenous, 30 min) was 235.92 peak area and the “parent nucleus (voriconazole) in blood, peak area” value (“parent nucleus (voriconazole)” below) ([1]; intravenous, 30 min) was 0.324 peak area. The “Prodrug in blood, peak area” value ([1]; intravenous, 60 min) was 143.51 peak area, the “parent nucleus (voriconazole)” value ([1]; intravenous, 60 min) was 86.42 peak area and the “Prodrug in blood, peak area” value ([1]; intravenous, 120 min) was 98.59 peak area. The “parent nucleus (voriconazole)” value ([1]; intravenous, 120 min) was 158.32 peak area, the “Prodrug in blood, peak area” value ([1]; intravenous, 150 min) was 2.045 peak area and the “Prodrug in blood, peak area” value ([1]; intravenous, 200 min) was 0 peak area. The “parent nucleus (voriconazole)” value ([1]; intravenous, 200 min) was 130.38 peak area, the “Prodrug in blood, peak area” value ([1]; intravenous, 250 min) was 0 peak area and the “parent nucleus (voriconazole)” value ([1]; intravenous, 250 min) was 69.23 peak area. For the same molecule, the “potency against fungal infection (in words)” value (Aspergillus fumigatus; Aspergillus fumigatus or Candida albicans infection, conclusion from Table 7) was “very potent against fungal infection”.
For `C[C@@H](c1ncncc1F)[C@](O)(Cn1cncn1)c1ccc(F)cc1F` [voriconazole], the “parent nucleus (voriconazole)” value ([1]; in vivo, iv, 30 min) was 378.34 peak area, the “parent nucleus (voriconazole)” value ([1]; in vivo, iv, 60 min) was 321.69 peak area and the “parent nucleus (voriconazole)” value ([1]; in vivo, iv, 120 min) was 150.45 peak area. The “parent nucleus (voriconazole)” value ([1]; in vivo, iv, 150 min) was 78.35 peak area, the “parent nucleus (voriconazole)” value ([1]; in vivo, iv, 200 min) was 29.71 peak area and the “parent nucleus (voriconazole)” value ([1]; in vivo, iv, 250 min) was 0.234 peak area.
In the case of “Voriconazole phosphate anhydrate [reference compound]”, the “Sample weight, 0 hour” value [2] is reported as 0.3938 g, the “Sample weight, 24 hours” value ([2]; 24 hours) is reported as 0.4627 g and the “hydroscopicity (in words)” value ([2]; 24 hours) is reported as “significant hydroscopicity”. The “stability under highly humid conditions (in words)” value [3] was “extremely unstable”, the “Individual impurity, by weight” value ([3]; 0 hour) was “Individual impurity 0.07%” and the “Total impurity, by weight” value ([3]; 0 hour) was “Total impurity 0.10%”.
In the case of voriconazole sodium phosphate hydrate, the “Sample weight, 0 hour” value [2] is reported as 0.3318 g, the “Sample weight, 24 hours” value ([2]; 24 hours) is reported as 0.3441 g and the “Weight increase by moisture absorption, by weight” value ([2]; 24 hours) is reported as 3.6%. The “hydroscopicity (in words)” value ([2]; 24 hours) was “mild hydroscopicity”, the “MST (mean survival time)” value (Aspergillus fumigatus; Aspergillus fumigatus 4,000 CFU/g body weight, intravenous 5 mg/kg/day) was 6.2 days and the “% neg (percent of deep tissues culture-negative after treatment)” value (Aspergillus fumigatus; [4]) was 70%. The “% sur (percent survival)” value (Aspergillus fumigatus; [4]) was 66.4%, the “g (liver): CFU/g in culture-positive liver” value (Aspergillus fumigatus; [4]) was 3.5 mean log 10 CFU/g and the “MST (mean survival time)” value (Candida albicans; Candida albicans 4,000 CFU/g body weight) was 9.5 days. The “% neg (percent of deep tissues culture-negative after treatment)” value (Candida albicans; Candida albicans) was 69%, the “% sur (percent survival)” value (Candida albicans; Candida albicans) was 76.9% and the “g (liver): CFU/g in culture-positive liver” value (Candida albicans; Candida albicans) was 0 mean log 10 CFU/g. The “Individual impurity, by weight” value ([3]; 0 hour) was “Individual impurity 0.06%”, the “Total impurity, by weight” value ([3]; 0 hour) was “Total impurity 0.09%” and the “Individual impurity, by weight” value ([3]; 24 hour moisture absorption) was “Individual impurity 0.08%”. The “Total impurity, by weight” value ([3]; 24 hour moisture absorption) was “Total impurity 0.13%” and the “change in impurity after absorbing moisture (in words)” value ([3]; 24 hours) was “minor change in impurity”.
